Source: US10668135B2, “Methods of treating or preventing periodontitis and diseases associated with periodontitis” (The Trustees of the University of Pennsylvania, priority 2012, dated 2020)
“Also recorded” adds a separate entry of the source.

Experiments:
[1] = test system: ligature-induced periodontitis; test: Initial NHP study: ligature-induced periodontitis, maxillary posterior teeth, split-mouth, 6 weeks, two animals; assay type: in vivo, cynomolgus monkey; conditions: for clinical inflammation (inflammatory clinical parameters: probing pocket depth, gingival index, bleeding on probing, mobility index): Cp40 500 μg injected locally into maxillary interdental papillae, from day 3, vs inactive analog on contralateral side, 6 weeks, FIG. 4; for levels of proinflammatory cytokines in the gingival crevicular fluid (GCF): FIG. 5; for numbers of osteoclasts (TRAP-positive multinucleated cells) in bone biopsy specimens / osteoclastogenesis: FIG. 5G
Method: FIG. 4A, FIG. 4B, FIG. 4C, and FIG. 4D show results for probing pocket depth, gingival index, bleeding on probing, and mobility index, respectively, which are measurements typically used to detect clinical periodontal inflammation and bone lose. FIG. 4E represents a radiograph measurement of bone height. Starting 3 days after initiation of ligature-induced periodontitis, Cp40 (500 μg) was injected locally into the maxillary interdental papillae from the 1st premolar to the 2nd molar, in two animals, three times weekly. […] Shown are the effects of Cp40 on the indicated inflammatory clinical parameters and bone heights, determined using standardized X-ray images (taken at week 6) and NIKON imaging system software. Specifically, the distance between the cement-enamel junction (CEJ) and alveolar bone crest (ABC) was measured at six points (1st premolar, distal; 2nd premolar mesial & distal; 1st molar, mesial & distal; 2nd molar mesial) and the data in Panel E reflect the 6-site total. The higher CEJ-ABC distance values of the controls as compared to those of Cp40 treatments signify increased bone loss in the absence of drug treatment. In all animals, the gingival margin was at the cement-enamel junction, and thus, PPD readings equaled clinical attachment loss (CAL).
Specifically, the panels show the relative protein levels for TNF (FIG. 5A), IL-1b (FIG. 5B), IL-6 (FIG. 5C), IL-17A (FIG. 5D), receptor activator of nuclear factor kappa-B ligand (RANKL; FIG. 5E), and osteoprotegerin (OPG; FIG. 5F). At the same timepoints that clinical exams were performed (as per FIGS. 4A-4E), GCF was collected from the same monkeys (treatment details in FIGS. 4A-4E legend) using PERIOPAPER absorbent strips to assay the indicated cytokines. Total cytokine content in the eluted GCF samples was measured using MILLIPLEX MAP (multi-analyte panels) kits on a BIO-PLEX detection system. In FIG. 5G, TRAP-positive multinucleated cells (osteoclasts) were enumerated in nine serial sections for each bone biopsy specimen taken between the 2nd premolar and 1st molar of each animal.
The cynomolgus monkey model is therefore considerably more predictive of drug efficacy in human periodontitis as compared to other, widely used preclinical animal models such as rodents. Moreover, the cynomolgus model of ligature-induced periodontitis allows longitudinal examination of the disease in a way that cannot be performed in humans.
Thus, each animal served as its own control. An initial study with a 6-week duration was conducted using two animals.

[2] = test system: ligature-induced periodontitis; test: Second NHP study: ligature-induced periodontitis, mandibular posterior teeth, split-mouth, four monkeys; assay type: in vivo, cynomolgus monkey; conditions: n=4 monkeys
Method: FIG. 6A, FIG. 6B, FIG. 6C, and FIG. 6D show measurements for probing pocket depth, gingival index, bleeding on probing, and mobility index, respectively, between Cp40 treated and control animals. Starting 3 days after initiation of ligature-induced periodontitis, Cp40 (500 μg) or control were injected locally into the mandibular interdental papillae from the 1st premolar to the 2nd molar, three times weekly, in opposites sides of the mouth (split-mouth design). The effects of Cp40 were determined on the indicated inflammatory clinical parameters at the indicated timepoints. In all animals, the gingival margin was at the cement-enamel junction, and thus, PPD readings equaled clinical attachment loss (CAL). Data are means±SD (n=4 monkeys). *, P<0.05; **, P<0.01 vs. control.
Specifically, levels of TNF-α (FIG. 7A), IL-1β (FIG. 7B), IL-6 (FIG. 7C), interleukin 8 (IL-8; FIG. 7D), IL-17A (FIG. 7E), interleukin 18 (IL-18; FIG. 7F), granulocyte colony-stimulating factor (G-CSF; FIG. 7G), RANKL (FIG. 7H), and OPG (FIG. 7I) were measured. At the same timepoints that clinical exams were performed (as per FIGS. 6A-6D), GCF was collected from the same monkeys (treatment details in FIGS. 6A-6D legend) using PERIOPAPER absorbent strips to assay the indicated cytokines. Total cytokine content in the eluted GCF samples was measured using MILLIPLEX MAP (multi-analyte panels) kits on a BIO-PLEX detection system. Data are means±SD (n=4 monkeys). *, P<0.05; **, P<0.01 vs. control.
FIGS. 8A-8C are graphs showing inhibition of periodontal bone loss following treatment of NHP periodontitis with Cp40. Four monkeys were treated as described in the legend to FIGS. 6A-6D, and their mandibular bone heights (CEJ-ABC distance) were measured using standardized X-ray images (taken at baseline and at week 6) and NIKON imaging system software. Measurements were made at six points (1st premolar, distal; 2nd premolar mesial & distal; 1st molar, mesial & distal; 2nd molar mesial) and the data in FIG. 8A and FIG. 8B reflect, respectively, the 6-site total at baseline (FIG. 8A) and at week 6 (FIG. 8B). For each control or Cp40 treatment, bone loss was calculated as bone height at baseline minus bone height at 6 weeks (FIG. 8C). The difference between Cp40 and control was significant (P<0.05; paired t test).
In a second NHP study, ligature-induced periodontitis was induced by placing ligatures around the mandibular posterior teeth (i.e., in the lower jaw) of the same two animals plus in two additional animals (total of four monkeys). The results obtained (FIGS. 6, 7, and 8) confirmed the results of the original study. Moreover, the presence of four animals allowed the possibility for statistical analysis.

[3] = Cp40 500 μg local, three times weekly, vs inactive analog control

Row | Compound | clinical inflammation (inflammatory clinical parameters: probing pocket depth, gingival index, bleeding on probing, mobility index) ([1]; three times weekly) | levels of proinflammatory cytokines in the gingival crevicular fluid (GCF) [1, 3] | numbers of osteoclasts (TRAP-positive multinucleated cells) in bone biopsy specimens / osteoclastogenesis [1, 3] | bone loss (radiographic bone height, CEJ-ABC distance, 6-site total) ([1]; Cp40 500 μg local, three times weekly, X-ray at week 6, vs inactive analog control, FIG. 4E) | GCF levels of RANKL ([1]; Cp40 500 μg local, three times weekly, vs inactive analog control, FIG. 5E) | GCF levels of osteoprotegerin (OPG) ([1]; Cp40-treated sites vs control sites during the course of the study, FIG. 5F) | probing pocket depth (PPD), protective effect ([2]; Cp40 500 μg injected locally into mandibular interdental papillae, three times weekly, vs control, FIG. 6A) | inflammatory clinical parameters (overall) ([2]; Cp40 500 μg local mandibular, three times weekly, vs control, FIG. 6) | gingival index (GI), protective effect ([2]; Cp40 500 μg local mandibular, three times weekly, vs control, FIG. 6B) | GCF levels of proinflammatory cytokines (cytokine responses) ([2]; Cp40 500 μg local mandibular, three times weekly, vs control, FIG. 7) | periodontal bone loss (bone height at baseline minus bone height at 6 weeks, CEJ-ABC distance) ([2]; Cp40 500 μg local mandibular, three times weekly, vs control, P<0.05 paired t test, FIG. 8C) | GCF RANKL levels ([2]; Cp40 vs. control treatment, FIG. 7H) | GCF OPG levels ([2]; Cp40 vs. control treatment, FIG. 7I)
1 | CC[C@H](C)[C@H](N)C(=O)N[C@H]1CSSC[C@@H](C(=O)N[C@H](C(N)=O)[C@@H](C)O)NC(=O)[C@H](CCCN=C(N)N)NC(=O)[C@H](Cc2cnc[nH]2)NC(=O)[C@H](Cc2cnc[nH]2)NC(=O)CNC(=O)[C@H](Cc2c[nH]c3ccccc23)NC(=O)[C@H](CC(=O)O)NC(=O)[C@H](CCC(N)=O)NC(=O)[C@H](C(C)C)NC(=O)[C@H](C(C)C)NC1=O [Compstatin, Ile-Cys*-Val-Val-Gln-Asp-Trp-Gly-His-His-Arg-Cys*-Thr] | decreased clinical inflammation | reduced levels of proinflammatory cytokines | lower numbers of osteoclasts | – | – | – | – | – | – | – | – | – | –
2 | dTyr-Ile-Cys*-Val-Trp(1Me)-Gln-Asp-Trp-Sar-Ala-His-Arg-Cys*-mIle-NH2 (YICVWQDWGAHRCI; D-Tyr, Trp(1Me), Sar, mIle, disulfide cyclisation, C-terminal amide; compstatin analog (Cp40); MOD_RES (1)..(1) D-Tyrosine; DISULFID (3)..(13) Cysteines joined via disulfide bridge.; MOD_RES (5)..(5) 1-methyl-tryptophan; MOD_RES (9)..(9) …ON, MeGly; MOD_RES (14)..(14) …ON; MOD_RES (14)..(14) AMIDATION) | decreases inflammatory clinical parameters | inhibits proinflammatory cytokine production | decreased osteoclastogenesis | decreased bone loss | decreased GCF levels of RANKL | maintained at higher levels | reached statistical significance | significant inhibition of inflammatory clinical parameters | reached statistical significance | decreased GCF levels of proinflammatory cytokines; also recorded: reached statistical significance | significant inhibition of bone loss | decreased RANKL | increased OPG levels
